Marks after values point to notes of the source that are not given here.
Assays:
Assay type in all cases: in vivo
Botrytis cinerea = test: Test C: tomato Botrytis on tomato seedlings, sprayed the day before inoculation, visual disease rating; conditions: 100 = 100% disease control; for pest or weed control at 200 ppm: Botrytis cinerea, 120 h
How it was run: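 Disease ratings refer to tomato seedlings treated by run-off spraying with compound suspensions, mostly 200 ppm (500 g/ha equivalent) and in marked cases 40 ppm. Carrier: acetone/purified water 50/50 with 250 ppm polyhydric alcohol ester surfactant, after predissolving in acetone.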

Alternaria solani = test: Test D: tomato early blight, sprayed the day before inoculation, visual disease rating; conditions: 100 = 100% disease control; for pest or weed control at 200 ppm: Alternaria solani, 168 h
How it was run: (§1)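 Acetone solution (3% of final volume) of each compound is suspended in 50/50 acetone/water with 250 ppm Trem® 014. Plants are sprayed to run-off at 200 ppm, equivalent to 500 g/ha, or at 40 ppm for starred values.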

Septoria nodorum = test: Test F: wheat glume blotch on wheat seedlings, sprayed the day before inoculation, visual disease rating; conditions: 100 = 100% disease control; for pest or weed control at 200 ppm: Parastagonospora nodorum, 264 h
How it was run: as §1

Septoria tritici = test: Test G: wheat leaf blotch on wheat seedlings, sprayed the day before inoculation, visual disease rating; conditions: 100 = 100% disease control; for pest or weed control at 200 ppm: Zymoseptoria tritici, 504 h
How it was run: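 Visual disease ratings taken 19 days after transfer to a 20° C growth chamber, following 48 h in saturated atmosphere at 24° C. Seedlings had been sprayed to run-off one day before spore inoculation. Dose 200 ppm, or 40 ppm where starred.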

[1] = test system: Puccinia recondita f. sp. tritici; test: Test I: wheat leaf rust on wheat seedlings, sprayed the day before inoculation, visual disease rating; conditions: 100 = 100% disease control; for pest or weed control at 200 ppm: Puccinia recondita, 168 h
How it was run: as §1

[2] = test system: Erysiphe graminis f. sp. tritici; test: Test J: wheat powdery mildew on wheat seedlings, sprayed the day before inoculation, visual disease rating; conditions: 100 = 100% disease control; for pest or weed control at 200 ppm: Blumeria graminis, 168 h
How it was run: as §1

[3] = 200 ppm, 0 = no control relative to controls
[4] = 40 ppm (marked *), 0 = no control

Structure (SMILES)	Test C disease control rating (Botrytis cinerea; [3])	Test D disease control rating (Alternaria solani; [3])	Test F disease control rating (Septoria nodorum; [3])	Test G disease control rating (Septoria tritici; [3])	Test I disease control rating [1, 3]	Test J disease control rating [2, 3]	Test C disease control rating (Botrytis cinerea; 200 ppm, 0 = no control)	Test D disease control rating (Alternaria solani; 200 ppm, 0 = no control)	Test F disease control rating (Septoria nodorum; 200 ppm, 0 = no control)	Test G disease control rating (Septoria tritici; 200 ppm, 0 = no control)	Test I disease control rating ([1]; 200 ppm, 0 = no control)	Test J disease control rating ([2]; 200 ppm, 0 = no control)	other results
Fc1cccc(Cl)c1-c1c(Cl)nc(Br)n1-c1ccc(Cl)cc1 [compound 52]	84%	100%	0%	97%	99%	100%	–	–	–	–	–	–	–
Cc1ccc(-n2cnc(Cl)c2-c2c(F)ccc(F)c2F)cc1 [compound 123]	99%	99%	0%	48%	90%	94%	–	–	–	–	–	–	–
Fc1ccc(Br)c(F)c1-c1c(Cl)ncn1-c1ccc(Cl)cc1 [compound 75]	98%	93%	0%	95%	77%	98%	–	–	–	–	–	–	–
CCOc1cc(F)c(-c2c(Cl)nc(C)n2-c2ccc(Cl)cc2)c(F)c1 [compound 156]	–	–	–	–	–	–	–	–	–	–	–	–	Test C disease control rating (Botrytis cinerea; [4]): 98* %; Test D disease control rating (Alternaria solani; [4]): 100* %; Test F disease control rating (Septoria nodorum; [4]): 99* %; Test G disease control rating (Septoria tritici; [4]): 97* %; Test I disease control rating [1, 4]: 97* %; Test J disease control rating [2, 4]: 99* %
COc1cc(F)c(-c2c(Cl)nc(C)n2-c2ccc(Cl)cc2)c(Cl)c1 [compound 172]	–	–	–	–	–	–	99%	99%	100%	98%	99%	99%	–
COc1ccc(Cn2cnc(Cl)c2-c2c(F)cccc2F)cc1 [compound 194]	–	–	–	–	–	–	99%	95%	73%	97%	100%	96%	–
Cc1nc(Cl)n(-c2c(F)cc(F)cc2F)c1-c1ccc(Cl)cc1 [compound 446]	–	–	–	–	–	–	–	–	–	–	–	–	Test C disease control rating (Botrytis cinerea; [4]): 96* %; Test D disease control rating (Alternaria solani; [4]): 100* %; Test F disease control rating (Septoria nodorum; [4]): 0* %; Test G disease control rating (Septoria tritici; [4]): 95* %; Test I disease control rating [1, 4]: 68* %; Test J disease control rating [2, 4]: 91* %
Fc1ccc(-n2cnc(Cl)c2-c2c(F)ccc(F)c2F)cc1 [compound 121]	99%	100%	0%	85%	89%	97%	–	–	–	–	–	–	–
COc1ccc(F)c(-c2c(Br)ncn2-c2ccc(Cl)cc2)c1F [compound 449]	99%	100%	99%	97%	99%	100%	–	–	–	–	–	–	–
COc1ccc(F)c(-c2c(Cl)nc(Cl)n2-c2cccc(F)c2)c1F [compound 279]	–	–	–	–	–	–	100%	100%	100%	93%	100%	100%	–
Cc1ccc(-n2c(Br)nc(Cl)c2-c2c(F)cc(F)cc2F)cc1 [compound 153]	–	–	–	–	–	–	98%	100%	69%	96%	99%	100%	–
Fc1cc(F)c(-n2cnc(Cl)c2-c2ccc(Cl)cc2)c(F)c1 [compound 98]	–	–	–	–	–	–	–	–	–	–	–	–	Test C disease control rating (Botrytis cinerea; 40 ppm (marked *)): 0* %; Test D disease control rating (Alternaria solani; 40 ppm (marked *)): 0* %; Test F disease control rating (Septoria nodorum; 40 ppm (marked *)): 0* %; Test G disease control rating (Septoria tritici; 40 ppm (marked *)): 27* %; Test I disease control rating ([1]; 40 ppm (marked *)): 0* %; Test J disease control rating ([2]; 40 ppm (marked *)): 0* %
Fc1cccc(F)c1-n1c(Cl)nc(Cl)c1-c1ccc(Cl)cc1 [compound 150]	–	–	–	–	–	–	99%	100%	60%	98%	97%	100%	–
Cn1nc(Br)c(-c2c(F)cccc2F)c1-c1ccc(Cl)cc1 [Compound 125, 3-bromo-5-(4-chlorophenyl)-4-(2,6-difluorophenyl)-1-methyl-1H-pyrazole]	–	–	–	–	–	–	–	–	–	–	–	–	pest or weed control at 200 ppm (Botrytis cinerea; [3]): 98%; pest or weed control at 200 ppm (Alternaria solani; [3]): 100%; pest or weed control at 200 ppm (Septoria nodorum; [3]): 0%; pest or weed control at 200 ppm (Septoria tritici; [3]): 92%; pest or weed control at 200 ppm [1, 3]: 91%; pest or weed control at 200 ppm [2, 3]: 100%
COc1cc(F)c(-c2c(Cl)nc(C)n2-c2cccc(F)c2)c(F)c1 [Compound 280, 4-chloro-5-(2,6-difluoro-4-methoxyphenyl)-1-(3-fluorophenyl)-2-methyl-1H-imidazole]	–	–	–	–	–	–	–	–	–	–	–	–	pest or weed control at 200 ppm (Botrytis cinerea; 200 ppm, 0 = no control): 100%; pest or weed control at 200 ppm (Alternaria solani; 200 ppm, 0 = no control): 100%; pest or weed control at 200 ppm (Septoria nodorum; 200 ppm, 0 = no control): 100%; pest or weed control at 200 ppm (Septoria tritici; 200 ppm, 0 = no control): 95%; pest or weed control at 200 ppm ([1]; 200 ppm, 0 = no control): 100%; pest or weed control at 200 ppm ([2]; 200 ppm, 0 = no control): 100%
Cc1nc(Cl)c(-c2c(F)cccc2F)n1-c1ccccc1F [compound 64]	99%	100%	95%	95%	100%	96%	–	–	–	–	–	–	–
Cc1nc(Cl)c(-c2ccc(F)cc2Cl)n1-c1ccc(Cl)c(F)c1 [compound 243]	–	–	–	–	–	–	99%	100%	98%	99%	100%	98%	–
Cc1ccc(-n2c(Br)nc(Cl)c2-c2c(F)ccc(F)c2F)cc1 [compound 141]	99%	100%	0%	91%	99%	100%	–	–	–	–	–	–	–
Fc1ccc(-n2c(Cl)nc(Cl)c2-c2c(F)ccc(F)c2Cl)cc1 [compound 196]	–	–	–	–	–	–	99%	100%	0%	92%	100%	97%	–
Cc1nc(Cl)c(-c2c(F)cccc2F)n1-c1ccc(F)c(F)c1 [compound 174]	–	–	–	–	–	–	98%	99%	82%	98%	100%	100%	–
